Type in all cases: cell-based
The test system of series [1] is Pseudomonas aeruginosa ATCC 27853. The settings on record: ATCC 27853. In a few lines: (§1)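 Peptide stocks (1 mg/mL, water) were diluted two-fold into MH-II broth with 0.002% P-80 and mixed with approx. 10^6 CFU/mL bacteria. Plates were read visually after 18-20 hours at 35° C, with MIC expressed in μg/mL per CLSI.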
Series [2] deals with Klebsiella pneumoniae SSI #3010. The following applies: SSI #3010. In a few lines:
as §1

The test system of series [3] is Acinetobacter baumannii DSM 30008. The following applies: DSM 30008. Summed up:
as §1

Series [4] deals with Klebsiella pneumoniae 968733. The settings on record: 968733.
The subject of another series is Escherichia coli 926415. The settings on record: 926415.
The test system of series [5] is Acinetobacter baumannii 872842. The settings on record: 872842.
Series [6] concerns Escherichia coli ATCC 25922. The settings on record: ATCC 25922. Summed up:
as §1

Series [7] relates to human red blood cells (hRBC). The series can be described thus: Hemolysis of human red blood cells. The settings on record: red cells of human, 1 h, 100 μg/mL. Summed up:
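Each peptide was tested at a single concentration, 100 μg/mL. Erythrocytes (20% v/v) were incubated 1 h at 37° C. under shaking at 300 rpm, centrifuged, and released hemoglobin measured at OD540. Controls were PBS containing 0.001% acetic acid (0%) and Triton X-100 (100%).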

From patent US10829520B2, “Beta-hairpin peptidomimetics” (POLYPHOR AG, priority 2015, dated 2020) come the findings set out here.

Molecules are shown by their SMILES. Where a SMILES comes first, the peptide text is derived from it. Bridges are numbered along the chain shown (N, C = ends). [ ]: non-standard residue; d: D form. Tle = CC(C)(C)[C@H](N)C(=O)O; dDab = NCC[C@@H](N)C(=O)O; Nle = CCCC[C@H](N)C(=O)O; Orn = NCCC[C@H](N)C(=O)O; Dab = NCC[C@H](N)C(=O)O; Dap = NC[C@H](N)C(=O)O A value given as a limit tells only on which side of the number the result lay.

Turning to `CCCC[C@@H]1NC(=O)[C@@H]2CCCN2C(=O)[C@H]2CCCN2C(=O)[C@H](CO)NC(=O)[C@H](CO)NC(=O)[C@H](C(C)(C)C)NC(=O)[C@@H](NC(=O)[C@@H](N)Cc2c[nH]c3ccccc23)CSSC[C@@H](C(=O)N[C@H](CCN)C(=O)N[C@@H](CCN)C(=O)N[C@H](CCN)C(=O)N[C@H]2CCNC(=O)[C@H]([C@@H](C)O)NC(=O)[C@H](CCN)NC(=O)[C@H](CCN)NC(=O)[C@H](CC(C)C)NC(=O)[C@@H](Cc3ccccc3)NC(=O)[C@H](CCN)NC2=O)NC(=O)[C@H](Cc2ccc(O)cc2)NC(=O)[C@H](CO)NC1=O` [Ex. 106] (H-WC[Tle]SS[dP]P[Nle]SYC[dDab][Dab][dDab][Dab][Dab][dF]L[Dab][Dab]T; disulfide 2-11; lactam 15-C), in series [1], the “Pseudomonas aeruginosa ATCC 27853 MIC” value worked out at 0.25 µg/mL. Moreover, in series [2], the “Klebsiella pneumoniae SSI #3010 MIC” value came to 0.125 µg/mL. Further, the “Acinetobacter baumannii DSM 30008 MIC” value in series [3] was 0.25 µg/mL. The “Klebsiella pneumoniae 968733 MIC” value in series [4] was 0.5 µg/mL. Besides, the “Escherichia coli 926415 MIC” value in the series with Escherichia coli 926415 amounted to 0.125 µg/mL. The “Acinetobacter baumannii 872842 MIC” value in series [5] came to 0.125 µg/mL. Besides, the “Escherichia coli ATCC 25922 MIC” value in series [6] is 0.125 µg/mL. Besides, in series [7], the “Hemolysis at 100 μg/mL” value is 1%.

As for `CCCC[C@@H]1NC(=O)[C@@H]2CCCN2C(=O)[C@H]2CCCN2C(=O)[C@H](CO)NC(=O)[C@H](CO)NC(=O)[C@H](C(C)(C)C)NC(=O)[C@@H](NC(=O)[C@@H](N)Cc2c[nH]c3ccccc23)CSSC[C@@H](C(=O)N[C@@H](C(=O)N[C@@H](CCN)C(=O)N[C@H](CCN)C(=O)N[C@H]2CCNC(=O)[C@H]([C@@H](C)O)NC(=O)[C@H](CCN)NC(=O)[C@H](CCN)NC(=O)[C@H](CC(C)C)NC(=O)[C@@H](Cc3ccccc3)NC(=O)[C@H](CCN)NC2=O)[C@H](C)O)NC(=O)[C@H](Cc2ccc(O)cc2)NC(=O)[C@H](CO)NC1=O` [Ex. 107] (H-WC[Tle]SS[dP]P[Nle]SYC[dT][Dab][dDab][Dab][Dab][dF]L[Dab][Dab]T; disulfide 2-11; lactam 15-C), the “Pseudomonas aeruginosa ATCC 27853 MIC” value in series [1] is 0.25 µg/mL. The “Klebsiella pneumoniae SSI #3010 MIC” value in series [2] was 0.5 µg/mL. In addition, in series [3], the “Acinetobacter baumannii DSM 30008 MIC” value was 0.0625 µg/mL. Further, the “Klebsiella pneumoniae 968733 MIC” value in series [4] worked out at 0.5 µg/mL. For the same molecule, the “Escherichia coli 926415 MIC” value in the series with Escherichia coli 926415 was determined as 0.125 µg/mL. The “Acinetobacter baumannii 872842 MIC” value in series [5] was 0.125 µg/mL. The “Escherichia coli ATCC 25922 MIC” value in series [6] stood at 0.125 µg/mL. Moreover, the “Hemolysis at 100 μg/mL” value in series [7] is listed as 0.3%.

Consider `CCCC[C@@H]1NC(=O)[C@@H]2CCCN2C(=O)[C@H]2CCCN2C(=O)[C@H](CO)NC(=O)[C@H](CO)NC(=O)[C@H](C(C)(C)C)NC(=O)[C@@H](NC(=O)[C@@H](N)Cc2c[nH]c3ccccc23)CSSC[C@@H](C(=O)N[C@@H](CCC(=O)O)C(=O)N[C@@H](CCN)C(=O)N[C@@H](CCN)C(=O)N[C@H]2CCNC(=O)[C@H]([C@@H](C)O)NC(=O)[C@H](CCN)NC(=O)[C@H](CCN)NC(=O)[C@H](CC(C)C)NC(=O)[C@@H](Cc3ccccc3)NC(=O)[C@H](CCN)NC2=O)NC(=O)[C@H](Cc2ccc(O)cc2)NC(=O)[C@H](CO)NC1=O` [Ex. 108] (H-WC[Tle]SS[dP]P[Nle]SYCE[Dab][Dab][Dab][Dab][dF]L[Dab][Dab]T; disulfide 2-11; lactam 15-C), for which the “Pseudomonas aeruginosa ATCC 27853 MIC” value in series [1] was determined as 1 µg/mL. Also, the “Klebsiella pneumoniae SSI #3010 MIC” value in series [2] was 2 µg/mL. Besides, the “Acinetobacter baumannii DSM 30008 MIC” value in series [3] worked out at 1 µg/mL. Besides, in series [4], the “Klebsiella pneumoniae 968733 MIC” value amounted to 2 µg/mL. Moreover, the “Escherichia coli 926415 MIC” value with Escherichia coli 926415 stood at 0.5 µg/mL. The “Acinetobacter baumannii 872842 MIC” value in series [5] amounted to 1 µg/mL. The “Escherichia coli ATCC 25922 MIC” value in series [6] came to 1 µg/mL. For the same molecule, the “Hemolysis at 100 μg/mL” value in series [7] is given as 2%.

Take `CCCC[C@@H]1NC(=O)[C@@H]2CCCN2C(=O)[C@H]2CCCN2C(=O)[C@H](CO)NC(=O)[C@H](CO)NC(=O)[C@H](C(C)(C)C)NC(=O)[C@@H](NC(=O)[C@@H](N)Cc2c[nH]c3ccccc23)CSSC[C@@H](C(=O)N[C@H](Cc2ccc(O)cc2)C(=O)N[C@@H](CCN)C(=O)N[C@@H](CCN)C(=O)N[C@H]2CCNC(=O)[C@H]([C@@H](C)O)NC(=O)[C@H](CCN)NC(=O)[C@H](CCN)NC(=O)[C@H](CC(C)C)NC(=O)[C@@H](Cc3ccccc3)NC(=O)[C@H](CCN)NC2=O)NC(=O)[C@H](Cc2ccc(O)cc2)NC(=O)[C@H](CO)NC1=O` [Ex. 109] (H-WC[Tle]SS[dP]P[Nle]SYC[dY][Dab][Dab][Dab][Dab][dF]L[Dab][Dab]T; disulfide 2-11; lactam 15-C): in series [1], the “Pseudomonas aeruginosa ATCC 27853 MIC” value stood at 1 µg/mL. Moreover, the “Klebsiella pneumoniae SSI #3010 MIC” value in series [2] amounted to 1 µg/mL. For the same molecule, the “Acinetobacter baumannii DSM 30008 MIC” value in series [3] turned out to be 0.5 µg/mL. The “Klebsiella pneumoniae 968733 MIC” value in series [4] stood at 1 µg/mL. For the same molecule, in the series on Escherichia coli 926415, the “Escherichia coli 926415 MIC” value was 0.5 µg/mL. Moreover, the “Acinetobacter baumannii 872842 MIC” value in series [5] was found to be 0.5 µg/mL. Further, in series [6], the “Escherichia coli ATCC 25922 MIC” value is 0.25 µg/mL. The “Hemolysis at 100 μg/mL” value in series [7] is under 1%.

For `CC(=O)N[C@@H](Cc1c[nH]c2ccccc12)C(=O)N[C@H]1CSSC[C@@H](C(=O)N[C@@H](CCCN)C(=O)N[C@H](CCN)C(=O)N[C@@H](CCN)C(=O)N[C@H]2CCNC(=O)[C@H]([C@@H](C)O)NC(=O)[C@H](CCN)NC(=O)[C@H](CCN)NC(=O)[C@H](CC(C)C)NC(=O)[C@@H](Cc3ccccc3)NC(=O)[C@H](CCN)NC2=O)NC(=O)[C@H](Cc2ccc(O)cc2)NC(=O)[C@H](CN)NC(=O)[C@H](Cc2ccccc2)NC(=O)[C@H](CC(C)C)NC(=O)[C@H]2CCCN2C(=O)[C@H](CO)NC(=O)[C@H](C)NC(=O)[C@H](C(C)(C)C)NC1=O` [Ex. 110] (Ac-WC[Tle]AS[dP]LF[Dap]YC[Orn][dDab][Dab][Dab][Dab][dF]L[Dab][Dab]T; disulfide 2-11; lactam 15-C), the “Pseudomonas aeruginosa ATCC 27853 MIC” value in series [1] came out at 1 µg/mL. In addition, the “Klebsiella pneumoniae SSI #3010 MIC” value in series [2] is 0.5 µg/mL. The “Acinetobacter baumannii DSM 30008 MIC” value in series [3] is 0.25 µg/mL. Besides, the “Klebsiella pneumoniae 968733 MIC” value in series [4] worked out at 2 µg/mL. The “Escherichia coli 926415 MIC” value with Escherichia coli 926415 was found to be 0.25 µg/mL. For the same molecule, in series [5], the “Acinetobacter baumannii 872842 MIC” value stood at 0.25 µg/mL. For the same molecule, the “Escherichia coli ATCC 25922 MIC” value in series [6] came to 0.5 µg/mL. The “Hemolysis at 100 μg/mL” value in series [7] was 2%.

Turning to `CC(=O)N[C@@H](Cc1c[nH]c2ccccc12)C(=O)N[C@H]1CSSC[C@@H](C(=O)N[C@@H](CCCN)C(=O)N[C@H](C(=O)N[C@@H](CCN)C(=O)N[C@H]2CCNC(=O)[C@H]([C@@H](C)O)NC(=O)[C@H](CCN)NC(=O)[C@H](CCN)NC(=O)[C@H](CC(C)C)NC(=O)[C@@H](Cc3ccccc3)NC(=O)[C@H](CCN)NC2=O)[C@@H](C)O)NC(=O)[C@H](Cc2ccc(O)cc2)NC(=O)[C@H](CO)NC(=O)[C@H](CC(C)C)NC(=O)[C@@H]2CCCN2C(=O)[C@H]2CCCN2C(=O)[C@H](CO)NC(=O)[C@H](C)NC(=O)[C@H](Cc2c[nH]c3ccccc23)NC1=O` [Ex. 111] (Ac-WCWAS[dP]PLSYC[Orn]T[Dab][Dab][Dab][dF]L[Dab][Dab]T; disulfide 2-11; lactam 15-C), the “Pseudomonas aeruginosa ATCC 27853 MIC” value in series [1] came to 1 µg/mL. For the same molecule, the “Klebsiella pneumoniae SSI #3010 MIC” value in series [2] was determined as 1 µg/mL. Also, in series [3], the “Acinetobacter baumannii DSM 30008 MIC” value amounted to 0.25 µg/mL. The “Klebsiella pneumoniae 968733 MIC” value in series [4] was determined as 1 µg/mL. The “Escherichia coli 926415 MIC” value in the series on Escherichia coli 926415 amounted to 0.25 µg/mL. In addition, in series [5], the “Acinetobacter baumannii 872842 MIC” value was 0.25 µg/mL. Also, in series [6], the “Escherichia coli ATCC 25922 MIC” value was 0.25 µg/mL. The “Hemolysis at 100 μg/mL” value in series [7] was 2%.

As for `CC(=O)N[C@@H](Cc1c[nH]c2ccccc12)C(=O)N[C@H]1CSSC[C@@H](C(=O)N[C@@H](CCCN)C(=O)N[C@@H](CCN)C(=O)N[C@@H](CCN)C(=O)N[C@H]2CCNC(=O)[C@H]([C@@H](C)O)NC(=O)[C@H](CCN)NC(=O)[C@H](CCN)NC(=O)[C@H](CC(C)C)NC(=O)[C@@H](Cc3ccccc3)NC(=O)[C@H](CCN)NC2=O)NC(=O)[C@H](Cc2ccc(O)cc2)NC(=O)[C@H](CO)NC(=O)[C@H](CC(C)C)NC(=O)[C@@H]2CCCN2C(=O)[C@H]2CCCN2C(=O)[C@H](CO)NC(=O)[C@@H](C)NC(=O)[C@H](C(C)(C)C)NC1=O` [Ex. 112] (Ac-WC[Tle][dA]S[dP]PLSYC[Orn][Dab][Dab][Dab][Dab][dF]L[Dab][Dab]T; disulfide 2-11; lactam 15-C), the “Pseudomonas aeruginosa ATCC 27853 MIC” value in series [1] turned out to be 4 µg/mL. Further, the “Klebsiella pneumoniae SSI #3010 MIC” value in series [2] is 0.5 µg/mL. Further, the “Acinetobacter baumannii DSM 30008 MIC” value in series [3] is 1 µg/mL. The “Klebsiella pneumoniae 968733 MIC” value in series [4] turned out to be 0.5 µg/mL. The “Escherichia coli 926415 MIC” value with Escherichia coli 926415 came to 1 µg/mL. The “Acinetobacter baumannii 872842 MIC” value in series [5] came to 1 µg/mL. Also, in series [6], the “Escherichia coli ATCC 25922 MIC” value is 1 µg/mL. The “Hemolysis at 100 μg/mL” value in series [7] is listed as 1%.
